In patent US9546172B2, “Pyrazolo[3,4-d]pyrimidine and pyrazolo[2,3-d]pyrimidine compounds as kinase inhibitors” (Pharmacyclics LLC, priority 2011, dated 2017) one finds IC50 data, which are given here for eleven compounds.

A word on the IC50: it is the concentration that inhibits the measured activity by half. Higher therefore signals lower potency.

Holding throughout (assay type): biochemical
The target in one assay is EGFR (Homo sapiens, UniProt P00533). In words: EGFR kinase inhibition.
For another assay, the target named is Lyn (Homo sapiens, UniProt P07948). In words: Lyn kinase inhibition.
Sequence of Lyn (P07948 whole entry): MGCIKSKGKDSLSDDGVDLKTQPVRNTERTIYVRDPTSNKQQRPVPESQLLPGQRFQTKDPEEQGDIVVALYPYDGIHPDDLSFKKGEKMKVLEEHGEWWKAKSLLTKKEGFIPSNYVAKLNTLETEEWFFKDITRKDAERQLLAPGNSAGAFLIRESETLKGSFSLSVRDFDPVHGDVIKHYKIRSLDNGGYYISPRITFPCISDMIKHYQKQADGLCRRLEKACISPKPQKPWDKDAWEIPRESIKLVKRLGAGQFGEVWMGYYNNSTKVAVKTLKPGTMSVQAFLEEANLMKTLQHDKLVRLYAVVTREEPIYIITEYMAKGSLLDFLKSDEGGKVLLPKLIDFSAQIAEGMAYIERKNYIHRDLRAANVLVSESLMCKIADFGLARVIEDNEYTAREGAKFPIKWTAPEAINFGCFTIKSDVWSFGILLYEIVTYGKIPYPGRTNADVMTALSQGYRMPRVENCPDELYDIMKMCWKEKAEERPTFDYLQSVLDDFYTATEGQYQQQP
In another assay the target is C-src (Homo sapiens, UniProt P12931). As to the kind of experiment: C-src kinase inhibition. As for the experimental part: (§1) Btk kinase activity was determined using a time-resolved fluorescence resonance energy transfer (TR-FRET) methodology. Measurements were performed in a reaction volume of 50 μL using 96-well assay plates. […] The reaction was quenched by the addition of 1.2 equivalents of EDTA (relative to divalent cation) in 25 μL of 1× Lance buffer (Perkin-Elmer). Streptavidin-APC (Perkin-Elmer) and Eu-labeled p-Tyr100 antibody (Perkin-Elmer) in 1× Lance buffer were added in a 25 μL volume to give final concentrations of 100 nM and 2.5 nM, respectively, and the mixture was allowed to incubate for one hour. The TR-FRET signal was measured on a multimode plate reader with an excitation wavelength (λEx) of 330 nm and detection wavelengths (λEm) of 615 and 665 nm. Activity was determined by the ratio of the fluorescence at 665 nm to that at 615 nm. For each compound, enzyme activity was measured at various concentrations of compound. Negative control reactions were performed in the absence of inhibitor in replicates of six, and two no-enzyme controls were used to determine baseline fluorescence levels Inhibition constants, Ki(app), were obtained using the program BatchKi (Kuzmic et al. (2000), Anal. Biochem. 286:45-50). IC50s were obtained according to the equation: IC50={Ki(app)/(1+[ATP]/Km^ATP)}+[E]total/2; For all kinases, [ATP]=Km^ATP, [Btk]total=0.5 nM and [Lck]total=6 nM.
Sequence of C-src (P12931 whole entry): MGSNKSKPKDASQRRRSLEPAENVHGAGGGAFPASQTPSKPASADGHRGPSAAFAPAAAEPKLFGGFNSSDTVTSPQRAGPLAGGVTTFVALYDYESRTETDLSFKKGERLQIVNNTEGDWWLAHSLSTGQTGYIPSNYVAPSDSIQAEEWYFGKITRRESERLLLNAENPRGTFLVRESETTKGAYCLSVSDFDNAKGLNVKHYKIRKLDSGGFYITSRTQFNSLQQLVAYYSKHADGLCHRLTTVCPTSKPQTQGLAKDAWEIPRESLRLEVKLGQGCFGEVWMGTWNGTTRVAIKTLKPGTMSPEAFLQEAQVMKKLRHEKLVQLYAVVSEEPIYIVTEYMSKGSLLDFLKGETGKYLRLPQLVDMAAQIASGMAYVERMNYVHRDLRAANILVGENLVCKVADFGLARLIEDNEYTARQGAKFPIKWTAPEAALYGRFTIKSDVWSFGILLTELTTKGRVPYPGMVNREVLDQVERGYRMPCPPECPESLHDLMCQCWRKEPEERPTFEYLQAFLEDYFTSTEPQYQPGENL

A further assay has as its target Lck (Homo sapiens, UniProt P06239). In words: Lck kinase inhibition. As for the experimental part: as §1
For a further assay, the target named is T1, Btk (Homo sapiens, UniProt Q06187).
T1 construct: purified from insect cells as a full-length construct containing a N-terminal 6×-His tag; 6xHis (N); host or cells: insect cells (baculovirus Sf21 in Method B)
T1 sequence (Q06187 whole entry): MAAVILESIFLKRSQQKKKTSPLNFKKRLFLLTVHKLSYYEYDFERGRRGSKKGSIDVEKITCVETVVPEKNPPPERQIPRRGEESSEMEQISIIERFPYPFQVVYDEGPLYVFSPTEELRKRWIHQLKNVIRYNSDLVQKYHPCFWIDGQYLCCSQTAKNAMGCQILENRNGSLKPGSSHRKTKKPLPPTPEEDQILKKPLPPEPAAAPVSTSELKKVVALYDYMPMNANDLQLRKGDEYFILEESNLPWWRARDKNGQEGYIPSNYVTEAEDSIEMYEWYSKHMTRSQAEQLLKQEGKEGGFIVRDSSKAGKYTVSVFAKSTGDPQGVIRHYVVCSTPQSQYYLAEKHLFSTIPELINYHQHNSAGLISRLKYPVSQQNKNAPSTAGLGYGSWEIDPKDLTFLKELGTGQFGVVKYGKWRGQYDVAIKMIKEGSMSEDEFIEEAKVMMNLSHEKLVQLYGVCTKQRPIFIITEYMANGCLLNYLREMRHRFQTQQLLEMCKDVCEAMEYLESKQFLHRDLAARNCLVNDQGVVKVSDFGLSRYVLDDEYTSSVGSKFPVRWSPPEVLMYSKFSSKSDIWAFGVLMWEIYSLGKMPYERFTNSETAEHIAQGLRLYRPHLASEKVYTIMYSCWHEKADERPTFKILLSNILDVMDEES
As to the kind of experiment: Btk in vitro inhibitory activity (one of Methods A, B, C). The conditions noted are these: determined in one of three in vitro assays (Examples 125-127). How it is done: The Btk IC50s of compounds disclosed herein was determined in one of the three in vitro assays described in Examples 125-127.
as §1
Kinase activity is measured in vitro using electrophoretic mobility shift assay. The kinase reactions are assembled in a total volume of 25 μL in 384 well plates. […] The reaction is incubated for one hour and is quenched by the addition of 45 μL of termination buffer (100 mM HEPES, pH7.5, 0.01% Triton X-100, 30 mM EDTA). The terminated reactions are analyzed using 12 channel LabChip® 3000 microfluidic detection instrument (Caliper Life Sciences). The enzymatic phosphorylation of the peptide results in a change in net charge, enabling electrophoretic separation of product from substrate peptide. As substrate and product peptides are separated, two peaks of fluorescence are observed. Change in the relative fluorescence intensity of the substrate and product peaks is the parameter measured, reflecting enzyme activity. In the presence of an inhibitor, the ratio between product and substrate is altered: the signal of the product decreases, while the signal of the substrate increases.
Activity in each sample is determined as the product to sum ratio (PSR): P/(S+P), where P is the peak height of the product peptide and S is the peak height of the substrate peptide. For each compound, enzyme activity is measured at various concentrations (12 concentrations of compound spaced by 3× dilution intervals). Negative control samples (0%-inhibition in the absence of inhibitor) and positive control samples (100%-inhibition, in the presence of 20 mM EDTA) are assembled in replicates of four and are used to calculate %-inhibition values for each inhibitor at each concentration. Percent inhibition (Pinh) is determined using following equation: Pinh=(PSR0%−PSRinh)/(PSR0%−PSR100%)*100, where PSRinh is the product sum ratio in the presence of inhibitor, PSR0% is the average product sum ration in the absence of inhibitor and PSR100% is the average product sum ratio in 100%-inhibition control samples;
The IC50 values of inhibitors are determined by 4 parameter sigmoidal dose-response model fitting of the inhibition curves (Pinh versus inhibitor concentration) using XLfit 4 software.
Human Btk kinase (Genbank accession # NP_000052) was purified from insect cells as a full-length construct containing a N-terminal 6×-His tag. Btk kinase activity was determined using a radiometric filter binding assay. Measurements are performed in a low reaction volume 384-well assay plates. […]

Another assay concerns the target BLK (Homo sapiens, UniProt P51451). In words: BLK kinase inhibition. How it is done:
as §1

In a further assay the target is T2, Tec (Homo sapiens, UniProt P42680).
T2 sequence (P42680 1-631): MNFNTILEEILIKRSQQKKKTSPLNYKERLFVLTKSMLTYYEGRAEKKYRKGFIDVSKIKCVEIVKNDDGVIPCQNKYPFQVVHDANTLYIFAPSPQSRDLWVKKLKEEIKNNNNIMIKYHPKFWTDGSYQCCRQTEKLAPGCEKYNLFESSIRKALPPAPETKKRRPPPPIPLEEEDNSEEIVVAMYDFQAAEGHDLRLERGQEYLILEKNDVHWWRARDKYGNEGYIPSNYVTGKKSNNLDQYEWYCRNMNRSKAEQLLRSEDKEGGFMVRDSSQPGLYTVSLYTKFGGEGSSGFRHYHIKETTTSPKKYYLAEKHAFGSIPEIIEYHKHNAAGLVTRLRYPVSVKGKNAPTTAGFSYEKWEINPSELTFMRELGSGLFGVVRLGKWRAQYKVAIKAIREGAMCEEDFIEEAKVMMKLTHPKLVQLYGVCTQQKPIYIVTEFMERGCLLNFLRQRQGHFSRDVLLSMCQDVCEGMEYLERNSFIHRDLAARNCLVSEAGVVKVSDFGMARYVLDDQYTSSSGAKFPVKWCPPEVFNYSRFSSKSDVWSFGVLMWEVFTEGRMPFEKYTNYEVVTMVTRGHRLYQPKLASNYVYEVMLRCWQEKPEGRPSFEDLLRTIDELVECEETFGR
As to the kind of experiment: Tec kinase inhibition. How it is done:
as §1

A further assay addresses T3, BMX (Homo sapiens, UniProt P51813).
T3 sequence (P51813 1-675): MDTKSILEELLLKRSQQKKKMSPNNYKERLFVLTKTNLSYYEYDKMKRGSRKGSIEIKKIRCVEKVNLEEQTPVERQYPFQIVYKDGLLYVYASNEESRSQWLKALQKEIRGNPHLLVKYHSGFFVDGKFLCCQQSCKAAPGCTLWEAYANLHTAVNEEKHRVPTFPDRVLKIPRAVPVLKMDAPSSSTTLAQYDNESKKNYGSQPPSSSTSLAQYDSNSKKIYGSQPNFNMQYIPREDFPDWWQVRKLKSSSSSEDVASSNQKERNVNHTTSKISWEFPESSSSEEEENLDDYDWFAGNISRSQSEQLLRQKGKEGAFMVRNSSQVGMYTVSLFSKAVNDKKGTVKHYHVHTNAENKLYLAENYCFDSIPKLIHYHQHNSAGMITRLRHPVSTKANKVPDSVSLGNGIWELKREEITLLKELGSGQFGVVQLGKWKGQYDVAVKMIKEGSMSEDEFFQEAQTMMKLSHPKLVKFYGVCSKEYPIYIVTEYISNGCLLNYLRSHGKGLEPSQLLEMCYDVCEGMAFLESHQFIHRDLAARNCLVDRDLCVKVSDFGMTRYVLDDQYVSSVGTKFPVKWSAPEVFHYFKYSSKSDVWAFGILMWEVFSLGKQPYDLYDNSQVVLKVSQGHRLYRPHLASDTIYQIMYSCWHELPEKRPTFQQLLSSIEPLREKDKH
As to the kind of experiment: BMX kinase inhibition.

The target of the next assay is CSK (Homo sapiens, UniProt P41240). As to the kind of experiment: CSK kinase inhibition.
Sequence of CSK (P41240 whole entry): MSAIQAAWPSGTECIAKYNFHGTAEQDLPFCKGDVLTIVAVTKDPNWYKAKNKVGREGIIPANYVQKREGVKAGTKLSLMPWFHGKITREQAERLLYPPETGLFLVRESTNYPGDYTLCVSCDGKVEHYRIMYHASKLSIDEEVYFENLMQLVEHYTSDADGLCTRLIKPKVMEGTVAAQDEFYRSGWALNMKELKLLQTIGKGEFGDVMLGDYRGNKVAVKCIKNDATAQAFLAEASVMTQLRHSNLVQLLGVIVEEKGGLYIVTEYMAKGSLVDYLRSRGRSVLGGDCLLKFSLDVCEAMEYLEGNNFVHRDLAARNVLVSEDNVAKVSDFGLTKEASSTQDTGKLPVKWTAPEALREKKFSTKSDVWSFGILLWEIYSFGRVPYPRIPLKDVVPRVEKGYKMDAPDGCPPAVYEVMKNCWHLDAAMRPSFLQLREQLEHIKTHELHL

Sequence of Lck (P06239 whole entry): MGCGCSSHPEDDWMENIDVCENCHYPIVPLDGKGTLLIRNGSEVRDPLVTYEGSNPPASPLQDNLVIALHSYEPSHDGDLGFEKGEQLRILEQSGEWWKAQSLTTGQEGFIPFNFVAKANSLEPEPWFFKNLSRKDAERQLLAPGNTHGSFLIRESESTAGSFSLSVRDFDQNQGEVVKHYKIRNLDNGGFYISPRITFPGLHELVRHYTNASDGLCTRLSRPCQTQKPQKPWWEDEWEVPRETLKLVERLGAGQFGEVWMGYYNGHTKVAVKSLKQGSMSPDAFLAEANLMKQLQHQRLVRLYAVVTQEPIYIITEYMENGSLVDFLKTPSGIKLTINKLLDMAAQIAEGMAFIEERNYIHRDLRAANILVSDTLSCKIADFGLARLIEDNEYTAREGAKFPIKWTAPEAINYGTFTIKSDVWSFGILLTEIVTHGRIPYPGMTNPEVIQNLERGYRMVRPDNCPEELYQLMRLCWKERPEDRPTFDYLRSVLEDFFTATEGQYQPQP
Sequence of EGFR (P00533 25-1210): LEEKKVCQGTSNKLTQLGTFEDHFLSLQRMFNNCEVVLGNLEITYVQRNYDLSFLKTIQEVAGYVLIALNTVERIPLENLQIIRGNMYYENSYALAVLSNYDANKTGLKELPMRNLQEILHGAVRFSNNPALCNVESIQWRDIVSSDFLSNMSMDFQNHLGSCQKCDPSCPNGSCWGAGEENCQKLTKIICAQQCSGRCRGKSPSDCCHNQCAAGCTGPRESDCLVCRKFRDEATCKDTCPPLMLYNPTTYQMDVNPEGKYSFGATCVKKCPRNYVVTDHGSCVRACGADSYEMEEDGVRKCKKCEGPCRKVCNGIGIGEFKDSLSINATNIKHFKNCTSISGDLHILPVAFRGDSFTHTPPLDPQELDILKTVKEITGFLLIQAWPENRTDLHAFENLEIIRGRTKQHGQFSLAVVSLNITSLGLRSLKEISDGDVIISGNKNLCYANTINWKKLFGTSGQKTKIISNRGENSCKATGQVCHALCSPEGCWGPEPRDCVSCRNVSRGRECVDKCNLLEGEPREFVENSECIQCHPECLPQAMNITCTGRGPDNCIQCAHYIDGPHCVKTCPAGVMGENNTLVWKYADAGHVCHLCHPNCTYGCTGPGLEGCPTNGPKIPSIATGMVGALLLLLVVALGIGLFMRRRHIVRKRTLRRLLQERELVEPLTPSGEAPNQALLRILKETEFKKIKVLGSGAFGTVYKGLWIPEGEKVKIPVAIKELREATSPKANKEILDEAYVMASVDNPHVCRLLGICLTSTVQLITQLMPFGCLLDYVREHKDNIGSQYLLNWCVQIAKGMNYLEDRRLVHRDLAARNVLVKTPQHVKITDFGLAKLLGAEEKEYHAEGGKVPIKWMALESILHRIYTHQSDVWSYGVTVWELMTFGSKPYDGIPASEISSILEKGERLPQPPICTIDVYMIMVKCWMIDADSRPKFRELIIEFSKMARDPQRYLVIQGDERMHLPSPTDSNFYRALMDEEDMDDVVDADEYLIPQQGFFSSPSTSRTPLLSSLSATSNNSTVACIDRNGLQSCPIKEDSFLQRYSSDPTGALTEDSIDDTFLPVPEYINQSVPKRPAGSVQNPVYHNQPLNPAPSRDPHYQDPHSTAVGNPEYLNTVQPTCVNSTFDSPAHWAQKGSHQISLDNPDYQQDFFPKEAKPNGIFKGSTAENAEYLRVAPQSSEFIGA
Sequence of BLK (P51451 whole entry): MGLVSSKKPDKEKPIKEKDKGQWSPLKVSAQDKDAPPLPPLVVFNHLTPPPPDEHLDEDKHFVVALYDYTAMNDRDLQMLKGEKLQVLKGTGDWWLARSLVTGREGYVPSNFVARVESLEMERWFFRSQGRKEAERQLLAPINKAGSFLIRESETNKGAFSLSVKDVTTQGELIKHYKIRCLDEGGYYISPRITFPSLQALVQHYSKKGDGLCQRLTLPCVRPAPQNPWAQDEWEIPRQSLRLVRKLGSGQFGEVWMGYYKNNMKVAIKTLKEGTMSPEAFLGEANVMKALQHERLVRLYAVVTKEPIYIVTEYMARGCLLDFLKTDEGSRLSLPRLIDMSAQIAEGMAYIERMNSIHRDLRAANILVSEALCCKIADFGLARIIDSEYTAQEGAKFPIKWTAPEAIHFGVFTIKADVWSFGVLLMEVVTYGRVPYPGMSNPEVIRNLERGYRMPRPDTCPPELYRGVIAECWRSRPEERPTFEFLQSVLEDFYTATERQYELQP

For `COc1cc(-c2nn(-c3ccc(N(C)C(=O)/C=C/CN(C)C)cc3)c3ncnc(N)c23)ccc1C` [Example 15, (E)-N-(4-(4-amino-3-(3-methoxy-4-methylphenyl)-1H-pyrazolo[3,4-d]pyrimidin-1-yl)phenyl)-4-(dimethylamino)-N-methylbut-2-enamide], the 50% inhibitory concentration (IC50) is 100 to 1000 nM at EGFR; below 100 nM against Lyn; below 100 nM against C-src; below 100 nM against Lck; below 100 nM on Btk.

`COc1cc(-c2nn(-c3ccc(NC(=O)/C=C/CN(C)C)cc3)c3ncnc(N)c23)ccc1C` [Example 16, (E)-N-(4-(4-amino-3-(3-methoxy-4-methylphenyl)-1H-pyrazolo[3,4-d]pyrimidin-1-yl)phenyl)-4-(dimethylamino)but-2-enamide]: the IC50 against BLK, against Tec, on BMX, at EGFR, against Lyn and against CSK was below 100 nM throughout. In addition, the IC50 against C-src, against Lck and against Btk was below 100 nM throughout.

On to `C=CC(=O)N(C)c1ccc(-n2nc(-c3ccc(C)c(OC)c3)c3c(N)ncnc32)cc1` [Example 18, N-(4-(4-amino-3-(3-methoxy-4-methylphenyl)-1H-pyrazolo[3,4-d]pyrimidin-1-yl)phenyl)-N-methylacrylamide], for which the IC50 was below 100 nM against EGFR; 100 to 1000 nM against Lyn; below 100 nM against C-src; below 100 nM against Lck; below 100 nM against Btk.

Consider `C=CC(=O)Nc1ccc(-n2nc(-c3ccc(Cl)cc3)c3c(N)ncnc32)cc1` [Example 19, N-(4-(4-amino-3-(4-chlorophenyl)-1H-pyrazolo[3,4-d]pyrimidin-1-yl)phenyl)acrylamide], for which the IC50 on EGFR, at Lyn, against C-src, on Lck and against Btk was below 100 nM throughout.

`C=CC(=O)Nc1ccc(-n2nc(-c3ccc(Cl)c(Cl)c3)c3c(N)ncnc32)cc1` [Example 20, N-(4-(4-amino-3-(3,4-dichlorophenyl)-1H-pyrazolo[3,4-d]pyrimidin-1-yl)phenyl)acrylamide]: the IC50 was 100 to 1000 nM at Lyn, below 100 nM against C-src, 100 to 1000 nM against Lck and below 100 nM against Btk.

With `C=CC(=O)N(C)c1cccc(-n2nc(-c3ccc(Cl)cc3)c3c(N)ncnc32)c1` [Example 22, N-(3-(4-amino-3-(4-chlorophenyl)-1H-pyrazolo[3,4-d]pyrimidin-1-yl)phenyl)-N-methylacrylamide], the IC50 against EGFR was below 100 nM; against Lyn it was above 1000 nM; at C-src it was 100 to 1000 nM; on Lck, above 1000 nM; against Btk, below 100 nM.

For `CN(C/C=C/C(=O)Nc1cccc(-n2nc(-c3ccc(Cl)cc3)c3c(N)ncnc32)c1)C1CC1` [Example 26, (E)-N-(3-(4-amino-3-(4-chlorophenyl)-1H-pyrazolo[3,4-d]pyrimidin-1-yl)phenyl)-4-(cyclopropyl(methyl)amino)but-2-enamide], the IC50 on Lyn was 100 to 1000 nM; on C-src, 100 to 1000 nM; against Lck it was 100 to 1000 nM; at Btk, below 100 nM.

Regarding `CN(C)C/C=C/C(=O)N(C)c1ccc(-n2nc(-c3ccc(Cl)cc3)c3c(N)ncnc32)nc1` [Example 28, (E)-N-(6-(4-amino-3-(4-chlorophenyl)-1H-pyrazolo[3,4-d]pyrimidin-1-yl)pyridin-3-yl)-4-(dimethylamino)-N-methylbut-2-enamide], the IC50 against EGFR was above 1000 nM; on Lyn it was above 1000 nM; against C-src it was 100 to 1000 nM; against Lck, 100 to 1000 nM; against Btk, below 100 nM.

For the compound `COc1cc(-c2nn(-c3ccc(N(C)C(=O)/C=C/CN(C)C)cn3)c3ncnc(N)c23)ccc1C` [Example 29, (E)-N-(6-(4-amino-3-(3-methoxy-4-methylphenyl)-1H-pyrazolo[3,4-d]pyrimidin-1-yl)pyridin-3-yl)-4-(dimethylamino)-N-methylbut-2-enamide], the IC50 is above 1000 nM against EGFR; 100 to 1000 nM on Lyn; below 100 nM against C-src; 100 to 1000 nM against Lck; below 100 nM on Btk.

Turning to `C=CC(=O)N1CC[C@@H](n2nc(-c3ccc(F)cc3)c3c(N)ncnc32)C1` [Example 85c], the IC50 against Btk is below 100 nM.

On Btk, `C=CC(=O)N1CC[C@@H](n2nc(-c3ccc(C)cc3)c3c(N)ncnc32)C1` [Example 85d] had an IC50 below 100 nM.
